Our source for the IC50 and inhibition values is ChEMBL document CHEMBL1157777, “Identification of hits as matrix-2 protein inhibitors through the focused screening of a small primary amine library” (J Med Chem, 2010).

Calls of active or inactive are those of the source. The calls are words filed in the database; no cut-off is given here.

A short description of assay [1]: Inhibition of avian influenza virus H5N1 matrix 2 protein expressed in HEK293 cells assessed as cell viability after 24 hrs. The assay is classed as cell-based. Particulars: Influenza A virus, H5N1, HEK293, 24 h.
In another assay the test system is Influenza A virus. As to the kind of experiment: Antiviral activity against Influenza A virus (A/Hong Kong/8/1968([…])) infected in MDCK cells. The assay is classed as functional, organism-based.
A short description of assay [2]: Inhibition of avian influenza virus (H5N1) matrix 2 protein expressed in HEK293 cells by path clamp electrophysiology method. The assay is classed as cell-based. The note with it: Influenza A virus.
The subject of another assay is HEK293. As to the kind of experiment: Inhibition of avian influenza virus (H5N1) matrix 2 protein expressed in HEK293 cells at 50 uM by path clamp electrophysiology method. The assay is classed as cell-based. The note with it: Influenza A virus.

As to `C[C@H]1[C@H](N)C[C@@H]2C[C@H]1C2(C)C`, the half-inhibitory concentration (IC50) amounted to 5.96 µM in assay [1], 1.36 µM with Influenza A virus and 4.3 µM in assay [2].
The like results for `NC12CC3CC(CC1C3)C2` were, in that order, 19 µM, 38.2 µM and 13.5 µM.
Consider `CC1(C)[C@@H]2CC[C@H](CN)[C@H]1C2`, for which the figures for the half-inhibitory concentration (IC50) (in assay [1]; in the assay with Influenza A virus; in assay [2]) were 25.5 µM, 2.3 µM and 4.4 µM, respectively.
The like results for `CC(C)(C)C1CCC(N)CC1` (centres undefined) were, in that order, 3.37 µM, 33.5 µM and 4.8 µM.
As for `NC12CC3CC(CC(C3)C1)C2` [AMANTADINE], the values for the IC50 (in assay [1]; with Influenza A virus; in assay [2]) were 3.52 µM, 5.96 µM and 8.8 µM, respectively. Further, in the assay with HEK293, the inhibition entry is “inactive”.
Regarding `C[C@@H]1[C@@H](N)C[C@H]2C[C@@H]1C2(C)C`, the IC50 in assay [1] was found to be 23 µM; with Influenza A virus, 6.02 µM; in assay [2] it was 6.8 µM.
